Results reported in patent US20220370453A1 (Storm Therapeutics Ltd, priority 2019, published 2022).

Columns and labels:
[1] = target: T1, BCDIN3D (Homo sapiens, UniProt Q7Z5W3); assay: BCDIN3D IC50 RFMS (RapidFire) assay with mini-helix; type: biochemical; conditions: 25 nM enzyme
T1 sequence (Q7Z5W3 1-292): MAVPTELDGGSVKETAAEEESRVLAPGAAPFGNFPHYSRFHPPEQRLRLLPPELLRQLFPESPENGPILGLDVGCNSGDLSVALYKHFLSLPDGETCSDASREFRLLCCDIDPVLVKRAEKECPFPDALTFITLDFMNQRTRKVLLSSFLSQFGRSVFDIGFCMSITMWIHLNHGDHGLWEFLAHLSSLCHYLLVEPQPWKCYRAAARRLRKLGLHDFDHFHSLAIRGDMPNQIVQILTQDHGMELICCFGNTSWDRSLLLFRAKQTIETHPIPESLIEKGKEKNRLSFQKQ
In short: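 SAH formation was measured by RapidFire mass spectrometry with D4- and 13C10-SAH internal standards after TCA quench. Substrates 6 μM SAM and 0.2 μM mini-helix reacted 1 h at 37 °C with 25 nM enzyme, which had been preincubated 10 min with compound (1% DMSO) in Tris pH 8.0 buffer with DTT, EDTA, BSA.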

[2] = target: T1, BCDIN3D; assay: BCDIN3D InCellPulse thermal stability assay in transfected A549 cells; type: cell-based; conditions: heat shock 58° C. 15 min
In short: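 Thermal stabilisation read-out: after a 15 min 58 °C heat shock, ePL-tagged BCDIN3D in transiently transfected A549 cells (1500/well) was quantified by enzyme-fragment complementation luminescence. Compounds were pre-incubated with cells 1 h at 37 °C, 0.6% DMSO final.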

[3] = mini-helix substrate 0.2 μM, SAM 6 μM
[4] = transiently transfected A549 cells

Row | Compound | IC50 [1, 3] | IC50 [2, 4] | IC50 ([1]; mini-helix 0.2 μM and SAM 6 μM as substrates, 1 hr at 37° C.) | IC50 ([2]; A549 cells transiently transfected with ePL-BCDIN3D, 1 h pre-incubation)
1 | Cn1ncc2c(NCc3ccc(F)cc3F)nc(NCC3(N)CC3)nc21 [Compound 2.26] | 1000 nM | 4650 nM | – | –
2 | Cn1ncc2c(Nc3cnc(C(F)(F)F)cn3)nc(NCC3(N)CC3)nc21 [Compound 2.47, N6-[(1-aminocyclopropyl)methyl]-1-methyl-N4-[5-(trifluoromethyl)pyrazin-2-yl]pyrazolo[3,4-d]pyrimidine-4,6-diamine] | 4520 nM | 8300 nM | – | –
3 | Cc1nn(C)c2nc(NCC(C)(C)N)nc(Nc3cccc(C(F)(F)F)c3)c12 [Compound 1.33, N6-(2-amino-2-methylpropyl)-1,3-dimethyl-N4-[3-(trifluoromethyl)phenyl]-1H-pyrazolo[3,4-d]pyrimidine-4,6-diamine] | – | – | 4330 nM | 6460 nM
4 | Cn1ncc2c(Nc3ccc(C(F)(F)F)cc3)nc(NCC(N)C3CC3)nc21 (centres unmarked) [Compound 3.13, 6-N-(2-amino-2-cyclopropylethyl)-1-methyl-4-N-[4-(trifluoromethyl)phenyl]pyrazolo[3,4-d]pyrimidine-4,6-diamine] | 180 nM | 510 nM | – | –
5 | COc1ccc(CNc2nc(NCC3(N)CC3)nc3c2cnn3C)c(OC)c1 [Compound 2.42, N6-[(1-aminocyclopropyl)methyl]-N4-[(2,4-dimethoxyphenyl)methyl]-1-methyl-pyrazolo[3,4-d]pyrimidine-4,6-diamine] | 1260 nM | 2990 nM | – | –
6 | Cn1ncc2c(Nc3ccc(C(F)(F)F)cc3)nc(NCC3(N)CCCC3)nc21 [Compound 3.18, 6-N-[(1-aminocyclopentyl)methyl]-1-methyl-4-N-[4-(trifluoromethyl)phenyl]pyrazolo[3,4-d]pyrimidine-4,6-diamine] | 88 nM | 335 nM | – | –
7 | Cn1ncc2c(Nc3ccc(C(F)(F)F)nc3)nc(NCC3(N)CCCC3)nc21 [Compound 3.19, 6-N-[(1-aminocyclopentyl)methyl]-1-methyl-4-N-[6-(trifluoromethyl)pyridin-3-yl]pyrazolo[3,4-d]pyrimidine-4,6-diamine] | 357 nM | 1240 nM | – | –

The next lines start with the values.

Row | IC50 [1, 3] | IC50 [2, 4] | IC50 ([1]; mini-helix 0.2 μM and SAM 6 μM as substrates, 1 hr at 37° C.) | IC50 ([2]; A549 cells transiently transfected with ePL-BCDIN3D, 1 h pre-incubation) | Compound
8 | 769 nM | 379 nM | – | – | Cn1ncc2c(NC3(C(F)(F)F)CC3)nc(NC[C@H](N)c3ccccc3)nc21 [Compound 4.78, N6-[(2R)-2-amino-2-phenyl-ethyl]-1-methyl-N4-[1-(trifluoromethyl)cyclopropyl]pyrazolo[3,4-d]pyrimidine-4,6-diamine]
9 | 136 nM | 232 nM | – | – | C[C@H](Nc1nc(NC[C@H](N)c2ccccc2)nc2c1cnn2C)C(F)(F)F [Compound 4.98, N6-[(2R)-2-amino-2-phenyl-ethyl]-1-methyl-N4-[(1S)-2,2,2-trifluoro-1-methyl-ethyl]pyrazolo[3,4-d]pyrimidine-4,6-diamine]
10 | 2300 nM | 3200 nM | – | – | Cn1ncc2c(NC3(C(C)(C)C)CC3)nc(NC[C@H](N)c3ccccc3)nc21 [Compound 4.79, N6-[(2R)-2-amino-2-phenyl-ethyl]-N4-(1-tert-butylcyclopropyl)-1-methyl-pyrazolo[3,4-d]pyrimidine-4,6-diamine]
11 | 120 nM | 220 nM | – | – | CC(C)[C@@H](C)Nc1nc(NC[C@H](N)c2ccccc2)nc2c1cnn2C [Compound 4.122, N6-[(2R)-2-amino-2-phenylethyl]-1-methyl-N4-[(2R)-3-methylbutan-2-yl]-1H-pyrazolo[3,4-d]pyrimidine-4,6-diamine]
12 | 70.4 nM | 184 nM | – | – | CC1CC1CNc1nc(NC[C@H](N)c2ccccc2)nc2c1cnn2C (stereo partly drawn) [Compound 4.58, N6-[(2R)-2-amino-2-phenyl-ethyl]-1-methyl-N4-[(2-methylcyclopropyl)methyl]pyrazolo[3,4-d]pyrimidine-4,6-diamine]
13 | 89.5 nM | 206 nM | – | – | Cn1ncc2c(Nc3ccc(OC(F)F)cc3)nc(NCC(N)c3ccccc3)nc21 (centres unmarked) [Compound 4.14, 6-N-(2-amino-2-phenylethyl)-4-N-[4-(difluoromethoxy)phenyl]-1-methylpyrazolo[3,4-d]pyrimidine-4,6-diamine]
